# Reference: ChEMBL document CHEMBL3875173, “Phenyltetrazolyl-phenylamides: Substituent impact on modulation capability and selectivity toward the efflux protein ABCG2 and investigation of interaction with the transporter” (Eur J Med Chem, 2016)
# Tests used:
# [1] = target: T1, Broad substrate specificity ATP-binding cassette transporter ABCG2 (Homo sapiens, UniProt Q9UNQ0); experiment: Inhibition of recombinant human GFP-fused ABCG2 expressed in MDCK2 cells assessed as reduction in pheophorbide A efflux preincubated for 30 mins followed by pheophorbide A addition measured after 2 hrs by flow cytometry; type: cell-based, MDCK-II
# T1 sequence (Q9UNQ0 whole entry): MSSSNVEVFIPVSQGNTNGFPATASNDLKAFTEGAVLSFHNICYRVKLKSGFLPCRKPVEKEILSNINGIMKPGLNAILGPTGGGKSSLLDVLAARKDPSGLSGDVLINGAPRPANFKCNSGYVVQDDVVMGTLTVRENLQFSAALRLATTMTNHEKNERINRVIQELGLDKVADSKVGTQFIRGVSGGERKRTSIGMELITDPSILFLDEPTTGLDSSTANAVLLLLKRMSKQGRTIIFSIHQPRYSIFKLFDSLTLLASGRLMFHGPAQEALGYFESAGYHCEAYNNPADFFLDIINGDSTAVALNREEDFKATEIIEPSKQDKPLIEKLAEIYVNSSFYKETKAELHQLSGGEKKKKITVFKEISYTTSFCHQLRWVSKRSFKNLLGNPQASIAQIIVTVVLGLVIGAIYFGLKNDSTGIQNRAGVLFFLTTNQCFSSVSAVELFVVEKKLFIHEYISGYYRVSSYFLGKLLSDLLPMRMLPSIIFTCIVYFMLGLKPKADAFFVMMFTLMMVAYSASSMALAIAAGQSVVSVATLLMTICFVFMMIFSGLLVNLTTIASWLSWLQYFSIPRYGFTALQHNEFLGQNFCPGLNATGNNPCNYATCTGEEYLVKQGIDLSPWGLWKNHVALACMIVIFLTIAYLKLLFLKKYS
# [2] = target: ATP-dependent translocase ABCB1 (Homo sapiens, UniProt P08183); experiment: Inhibition of ABCB1 in human A2780/ADR cells assessed as reduction in calcien-AM efflux preincubated for 30 mins followed by calcien-AM addition measured immediately at 60 sec time interval for 60 mins by fluorescence assay; type: cell-based
# Chain of ATP-dependent translocase ABCB1 (P08183 whole entry, the tested form may be a part): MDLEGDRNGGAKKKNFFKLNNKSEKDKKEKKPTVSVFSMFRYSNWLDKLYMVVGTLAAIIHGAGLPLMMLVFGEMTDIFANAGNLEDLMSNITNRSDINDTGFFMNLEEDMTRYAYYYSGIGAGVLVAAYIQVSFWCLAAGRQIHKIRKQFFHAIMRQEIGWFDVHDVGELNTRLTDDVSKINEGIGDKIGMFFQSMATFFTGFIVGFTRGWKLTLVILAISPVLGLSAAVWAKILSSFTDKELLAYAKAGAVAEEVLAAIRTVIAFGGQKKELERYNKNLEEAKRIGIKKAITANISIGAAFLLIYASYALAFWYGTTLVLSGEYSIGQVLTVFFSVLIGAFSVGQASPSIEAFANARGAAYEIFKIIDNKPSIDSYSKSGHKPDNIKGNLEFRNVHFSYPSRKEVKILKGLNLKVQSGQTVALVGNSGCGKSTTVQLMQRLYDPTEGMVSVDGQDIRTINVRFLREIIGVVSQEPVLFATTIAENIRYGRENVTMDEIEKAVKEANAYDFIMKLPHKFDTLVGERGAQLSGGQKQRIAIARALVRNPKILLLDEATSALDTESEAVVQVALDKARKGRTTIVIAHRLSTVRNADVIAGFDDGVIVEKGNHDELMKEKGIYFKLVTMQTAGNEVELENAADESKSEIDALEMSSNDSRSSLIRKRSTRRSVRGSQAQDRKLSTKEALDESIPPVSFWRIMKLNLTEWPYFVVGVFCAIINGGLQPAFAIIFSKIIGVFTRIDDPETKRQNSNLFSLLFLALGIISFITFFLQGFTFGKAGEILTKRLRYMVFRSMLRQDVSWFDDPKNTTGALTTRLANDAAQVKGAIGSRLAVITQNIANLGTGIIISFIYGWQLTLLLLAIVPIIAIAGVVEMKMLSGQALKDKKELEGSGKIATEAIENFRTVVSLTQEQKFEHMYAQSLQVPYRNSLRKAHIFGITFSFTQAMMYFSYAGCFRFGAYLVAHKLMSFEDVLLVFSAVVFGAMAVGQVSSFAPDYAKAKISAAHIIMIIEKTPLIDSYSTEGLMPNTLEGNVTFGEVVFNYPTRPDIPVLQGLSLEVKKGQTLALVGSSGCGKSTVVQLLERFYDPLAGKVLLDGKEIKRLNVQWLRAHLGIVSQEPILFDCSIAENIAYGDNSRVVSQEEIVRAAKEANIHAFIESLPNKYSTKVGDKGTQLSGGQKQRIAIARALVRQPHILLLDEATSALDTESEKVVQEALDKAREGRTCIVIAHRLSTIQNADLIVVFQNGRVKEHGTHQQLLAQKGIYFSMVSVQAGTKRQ
# [3] = target: T2, ABCG2 (Homo sapiens, UniProt Q9UNQ0); experiment: Inhibition of recombinant human GFP-fused ABCG2 expressed in MDCK2 cells assessed as reduction in pheophorbide A efflux at 10 uM preincubated for 30 mins followed by pheophorbide A addition measured after 2 hrs by flow cytometry relative to XR9577; type: cell-based, MDCK-II; details: MDCK2 cells expressing recombinant human GFP-fused ABCG2, probe pheophorbide A, read-out: Imax
# T2 sequence (Q9UNQ0 whole entry): T1 sequence (Q9UNQ0 whole entry)
# [4] = target: T2, ABCG2; experiment: Inhibition of recombinant human GFP-fused ABCG2 expressed in MDCK2 cells assessed as reduction in Hoechst 33342 efflux at 10 uM preincubated for 30 mins followed by Hoechst 33342 addition measured immediately at 60 sec time interval for 120 mins by fluorescence assay relative to XR9577; type: cell-based, MDCK-II; details: MDCK2 cells expressing recombinant human GFP-fused ABCG2, probe Hoechst 33342, read-out: Imax
# [5] = target: T3, ABCB1 (Homo sapiens, UniProt P08183); experiment: Inhibition of ABCB1 in human A2780/ADR cells assessed as reduction in calcien-AM efflux at 10 uM preincubated for 30 mins followed by calcien-AM addition measured immediately at 60 sec time interval for 60 mins by fluorescence assay relative to cyclosporine A; type: cell-based; details: probe calcein-AM (printed calcien-AM), read-out: Imax
# T3 sequence (P08183 whole entry, the tested form may be a part): as above
# [6] = target: T1, Broad substrate specificity ATP-binding cassette transporter ABCG2; experiment: Inhibition of recombinant human GFP-fused ABCG2 expressed in MDCK2 cells assessed as reduction in Hoechst 33342 efflux preincubated for 30 mins followed by Hoechst 33342 addition measured immediately at 60 sec time interval for 120 mins by fluorescence assay; type: cell-based, MDCK-II
# [7] = target: T2, ABCG2; experiment: Potency index, ratio of Ko143 IC50 to compound IC50 for recombinant human GFP-fused ABCG2 expressed in MDCK2 cells assessed as reduction in Hoechst 33342 efflux; type: cell-based; details: MDCK2 cells expressing recombinant human GFP-fused ABCG2, probe Hoechst 33342, read-out: Ratio IC50
# [8] = target: T2, ABCG2; experiment: Potency index, ratio of Ko143 IC50 to compound IC50 for recombinant human GFP-fused ABCG2 expressed in MDCK2 cells assessed as reduction in pheophorbide A efflux; type: cell-based; details: MDCK2 cells expressing recombinant human GFP-fused ABCG2, probe pheophorbide A, read-out: Ratio IC50
# [9] = target: T3, ABCB1; experiment: Potency index, ratio of cyclosporine A IC50 to compound IC50 for ABCB1 in human A2780/ADR cells; type: cell-based; details: read-out: Ratio IC50
# [10] = target: T1, Broad substrate specificity ATP-binding cassette transporter ABCG2; experiment: Competitive inhibition of recombinant human GFP-fused ABCG2 expressed in MDCK2 cells assessed as reduction in Hoechst 33342 efflux at 0.01 to 0.1 uM preincubated for 30 mins followed by addition of varying levels of Hoechst 33342 by Lineweaver-Burk plot analysis; type: cell-based; details: mdck-ii
# [11] = target: T1, Broad substrate specificity ATP-binding cassette transporter ABCG2; experiment: Non-competitive inhibition of recombinant human GFP-fused ABCG2 expressed in MDCK2 cells assessed as reduction in pheophorbide A efflux at 0.0178 to 0.1 uM preincubated for 30 mins followed by addition of varying levels of pheophorbide A by Lineweaver-Burk plot analysis; type: cell-based; details: mdck-ii
IC50 [1] [nM],IC50 [2] [µM],"Emax at 2 h, 10 µM [3] [%]","Emax at 2 h, 10 µM [4] [%]","inhibition at 1 h, 10 µM [5] [%]",IC50 [6] [nM],inhibition (INH) [10],inhibition (INH) [11],Compound,selectivity ratio [7],selectivity ratio [8],selectivity ratio [9]
131,19.4,95,97,≤ 25,136,–,–,COc1ccc(C(=O)Nc2ccccc2-c2nnn(-c3ccc(C(C)C)cc3)n2)cc1,–,–,–
247,–,56,57,–,168,–,–,COc1ccc(-n2nnc(-c3ccccc3NC(=O)c3cccc([N+](=O)[O-])c3)n2)cc1,–,–,–
251,4.2,85,100,≤ 25,132,–,–,COc1ccc(C(=O)Nc2ccccc2-c2nnn(-c3ccc(SC)cc3)n2)cc1,–,–,–
208,5.47,93,101,≤ 25,200,Active,Active,COc1ccc(C(=O)Nc2ccccc2-c2nnn(-c3ccccc3)n2)cc1,–,–,–
–,–,–,50,–,793,–,–,CCOc1ccc(-n2nnc(-c3ccccc3NC(=O)c3ccc(OC)cc3)n2)cc1,–,–,–
679,–,69,76,–,783,–,–,CCCc1ccc(C(=O)Nc2ccccc2-c2nnn(-c3ccc(SC)cc3)n2)cc1,–,–,–
–,3.2,–,100,≤ 25,319,–,–,COc1ccc(C(=O)Nc2ccccc2-c2nnn(-c3ccc(OC)c(OC)c3)n2)cc1,–,–,–
–,–,–,–,–,> 10000,–,–,CSc1ccc(-n2nnc(-c3ccccc3NC(=O)c3ccc(C(F)(F)F)cc3)n2)cc1,–,–,–
–,–,–,59,–,223,–,–,COc1ccc(C(=O)Nc2ccccc2-c2nnn(-c3ccc(Cl)cc3)n2)cc1,–,–,–
300,2.88,92,100,≤ 25,199,–,–,COc1ccc(C(=O)Nc2ccccc2-c2nnn(-c3ccc(OC)cc3)n2)cc1,–,–,–
–,–,–,–,–,> 10000,–,–,COc1ccc(C(=O)Nc2ccccc2-c2nnn(-c3ccc(Oc4ccccc4)cc3)n2)cc1,–,–,–
–,–,–,–,–,> 10000,–,–,CSc1ccc(-n2nnc(-c3ccccc3NC(=O)c3ccc([N+](=O)[O-])cc3)n2)cc1,–,–,–

# The next lines start with the molecule.
Compound,IC50 [1] [nM],IC50 [2] [µM],"Emax at 2 h, 10 µM [3] [%]","Emax at 2 h, 10 µM [4] [%]","inhibition at 1 h, 10 µM [5] [%]",IC50 [6] [nM],inhibition (INH) [10],inhibition (INH) [11],selectivity ratio [7],selectivity ratio [8],selectivity ratio [9]
CSc1ccc(-n2nnc(-c3ccccc3NC(=O)c3ccccc3[N+](=O)[O-])n2)cc1,117,9.78,77,91,≤ 25,221,–,–,–,–,–
CCCc1ccc(C(=O)Nc2ccccc2-c2nnn(-c3ccc(Oc4ccccc4)cc3)n2)cc1,–,–,–,–,–,> 10000,–,–,–,–,–
COc1ccc(-n2nnc(-c3ccccc3NC(=O)c3ccc(C(F)(F)F)cc3)n2)cc1OC,–,10.2,–,80,≤ 25,330,–,–,–,–,–
O=C(Nc1ccccc1-c1nnn(-c2ccccc2)n1)c1ccccc1[N+](=O)[O-],458,–,76,57,< 10,280,–,–,–,–,–
CCCc1ccc(C(=O)Nc2ccccc2-c2nnn(-c3ccc(OC(=O)c4ccc(CCC)cc4)cc3)n2)cc1,–,–,–,–,–,> 10000,–,–,–,–,–
O=C(Nc1ccccc1-c1nnn(-c2ccccc2)n1)c1ccccc1,64,21.8,109,90,≤ 25,66.9,–,–,3 to 4,3 to 4,–
O=C(Nc1ccccc1-c1nnn(-c2ccccc2)n1)c1cccc([N+](=O)[O-])c1,123,9.4,98,91,≤ 25,127,–,–,–,–,–
CCCc1ccc(C(=O)Nc2ccccc2-c2nnn(-c3ccc(O)cc3)n2)cc1,129,0.434,107,106,≤ 25,204,–,–,–,–,3
CCCc1ccc(C(=O)Nc2ccccc2-c2nnn(-c3ccccc3)n2)cc1,96.6,8.14,85,100,≤ 25,212,–,–,–,–,–
O=C(Nc1ccccc1-c1nnn(-c2ccccc2)n1)c1ccc(C(F)(F)F)cc1,3630,–,100,100,–,4390,–,–,–,–,–
COc1ccc(C(=O)Nc2ccccc2-c2nnn(-c3ccccc3)n2)cc1OC,511,–,86,102,–,832,–,–,–,–,–
O=C(Nc1ccccc1-c1nnn(-c2ccccc2)n1)c1ccc([N+](=O)[O-])cc1,321,–,69,60,–,150,–,–,–,–,–
COc1ccc(-n2nnc(-c3ccccc3NC(=O)c3ccccc3[N+](=O)[O-])n2)cc1,311,6.2,61,76,≤ 25,266,–,–,–,–,–
CCOc1ccc(-n2nnc(-c3ccccc3NC(=O)c3ccccc3[N+](=O)[O-])n2)cc1,–,–,–,72,–,308,–,–,–,–,–
O=C(Nc1ccccc1-c1nnn(-c2ccc(Cl)cc2)n1)c1ccc([N+](=O)[O-])cc1,–,–,–,–,–,> 10000,–,–,–,–,–
CC(C)c1ccc(-n2nnc(-c3ccccc3NC(=O)c3ccc(C(F)(F)F)cc3)n2)cc1,–,–,–,–,–,> 10000,–,–,–,–,–
COc1ccc(-n2nnc(-c3ccccc3NC(=O)c3ccccc3)n2)cc1OC,212,4.03,95,104,≤ 25,230,–,–,–,–,–
